Test results: article PMC5658359, “A potent small-molecule inhibitor of the DCN1-UBC12 interaction that selectively blocks cullin 3 neddylation” (Nature Communications, 2017)
“Also recorded” adds a separate entry of the source.

Assays:
neddylation of cullin 3 = test: Western blotting of neddylated and un-neddylated cullin 3 in cells; assay type: cell-based; settings: THLE2 liver cells, up to 24 h, MLN4924 0.3 µM
Text: (§1) Treated cells were lysed by RIPA buffer supplemented with protease and phosphatase inhibitors. The expression level of indicated proteins was examined by immunoblotting analysis. GAPDH was used as the loading control.

KYSE70 = test: Cell viability, WST assay, KYSE70; assay type: cell-based; settings: Homo sapiens, KYSE-70, 96 h; KYSE70, t = 4 d
Experimental: (§2) Supplementary Figure 8: 1
(§3) […] in a panel of 6 cell lines. (a) The indicated cell lines were treated with MLN4924, 4
(§4) Cell viability was determined with a WST assay. (b) The 5
(§5) was determined with a WST assay. 7

[1] = test system: neddylation of cullin 1 and other cullins; test: Western blotting of neddylated and un-neddylated cullin 1 and other cullins in cells; assay type: cell-based
Text: as §1

p21, Bim, CDT1 = test: Western blotting of cullin 1 and 4A CRL substrates in cells; assay type: cell-based; settings: western blot, 24 h
Text: as §1

NRF2 = test: Western blotting of NRF2 protein in cells; assay type: cell-based; settings: western blot, 24 h
Text: as §1

THLE2 = test: Cell viability, WST assay, THLE2; assay type: cell-based; settings: Homo sapiens, THLE-2, 96 h; THLE2, t = 4 d
Experimental: as §2, §3, §4, §5

KYSE140 = test: Cell viability, WST assay, KYSE140; assay type: cell-based; settings: Homo sapiens, KYSE-140, 96 h; KYSE140, t = 4 d
Experimental: as §2, §3, §4, §5

[2] = test system: THLE2 cells and five additional cancer cell lines; test: Cell viability, WST assay, panel of 6 cell lines; assay type: cell-based; settings: Homo sapiens, THLE-2; 6 different cell lines; read-out: IC50, inhibition of cell viability
NEDD8 E1 (APP-BP1/Uba3) = target: T1, NEDD8 E1 (APP-BP1/Uba3) (Homo sapiens, UniProt Q8TBC4); test: In vitro UBC12~NEDD8 thioester forming assay; assay type: biochemical; settings: DI-591 at concentrations up to 100 µM
T1 construct: purchased Boston Biochem
T1 sequence (Q8TBC4 1-463): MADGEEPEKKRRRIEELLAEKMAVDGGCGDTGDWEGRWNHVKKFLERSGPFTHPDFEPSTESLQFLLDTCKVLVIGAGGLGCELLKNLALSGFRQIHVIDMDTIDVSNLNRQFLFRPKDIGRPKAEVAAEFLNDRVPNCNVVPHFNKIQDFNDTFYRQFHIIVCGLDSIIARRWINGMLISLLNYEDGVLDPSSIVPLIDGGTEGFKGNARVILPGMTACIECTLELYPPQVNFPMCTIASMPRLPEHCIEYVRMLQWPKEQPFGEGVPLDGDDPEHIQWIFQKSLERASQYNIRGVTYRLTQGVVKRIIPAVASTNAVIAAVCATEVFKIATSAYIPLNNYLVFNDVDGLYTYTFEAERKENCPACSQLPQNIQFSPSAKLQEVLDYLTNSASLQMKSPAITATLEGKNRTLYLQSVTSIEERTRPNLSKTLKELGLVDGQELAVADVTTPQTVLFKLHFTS
T1 sequence (Q13564 1-534 partner): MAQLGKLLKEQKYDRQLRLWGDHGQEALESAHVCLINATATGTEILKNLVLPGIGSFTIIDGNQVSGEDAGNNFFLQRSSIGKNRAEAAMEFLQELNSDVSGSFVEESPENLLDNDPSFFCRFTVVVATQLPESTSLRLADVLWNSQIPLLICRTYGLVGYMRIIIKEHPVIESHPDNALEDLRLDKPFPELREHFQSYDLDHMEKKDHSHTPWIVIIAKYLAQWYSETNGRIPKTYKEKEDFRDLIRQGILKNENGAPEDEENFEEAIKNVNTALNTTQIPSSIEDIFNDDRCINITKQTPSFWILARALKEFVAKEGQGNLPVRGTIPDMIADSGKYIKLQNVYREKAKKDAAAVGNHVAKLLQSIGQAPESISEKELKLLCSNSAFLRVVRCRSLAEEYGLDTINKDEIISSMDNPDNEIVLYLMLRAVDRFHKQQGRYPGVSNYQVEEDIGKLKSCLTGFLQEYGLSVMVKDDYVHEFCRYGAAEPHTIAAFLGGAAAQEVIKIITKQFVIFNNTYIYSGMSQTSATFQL
Experimental: NEDD8, NEDD8 E1 (APP-BP1/Uba3) and UBC12 proteins were purchased from Boston Biochem. NEDD8 (10 μM), NEDD8 E1 (25 nM), and UBC12 (2 μM) were incubated in Tris-HCl (pH 7.4, 50 mM), MgCl2 (5 mM), DTT (0.5 mM) and BSA (0.1 mg/ml), with a tested compound at 25 °C for 10 min. Reactions were initiated by addition of 2 mM ATP (or distilled H2O) and ran for 5 min at 25 °C. 1 M DTT (or distilled H2O) was added to the reaction mixtures which were then kept on ice for 1 min followed by addition of SDS loading buffer (without DTT). The products were separated by SDS–PAGE, visualized by Coomassie stain and quantified by ImageLab (Bio-Rad).
1 Supplementa ry Figure 3:
3 Supplementary Figure 3. In vitro U BC12~N EDD8 thio ester forming assay.N EDD8,
4 NEDD8 E1 (APP -BP 1/Uba3) and UBC12 were purchased from Boston Biochem. 10μ M
5 NEDD8, 25nM N EDD8 E1,and 2μ M UBC12 were incubated in 50mM Tris-HCl (pH 7.4), 5mM
6 M gC l 2, 0.5mM DTT, and 0.1mg/ml BSA, with indicated compounds at 25℃ for 10min.
7 Reactions were initiated by addition o f 2mM ATP (or dH2O) and w ere run for 5min at 25℃ .
8 Reaction mixtures were t hen added with 1M DTT (or dH 2O) and kept on ice for 1min followed
9 by addition of SDS Loading buffer (without DTT). The products were s eparated b y SDS-PAGE,
10 visualized by Coomassie stain and quantified using an ImageLab imager ( Bio-Rad). […]

DCN1 = DCN1 (Homo sapiens, UniProt Q96GG9); test: Biotinylated protein pull-down assay, KYSE140 cell lysates; assay type: binding; parameters: endogenous in cells; host or cells: KYSE70; KYSE140
Sequence of DCN1 (Q96GG9 whole entry): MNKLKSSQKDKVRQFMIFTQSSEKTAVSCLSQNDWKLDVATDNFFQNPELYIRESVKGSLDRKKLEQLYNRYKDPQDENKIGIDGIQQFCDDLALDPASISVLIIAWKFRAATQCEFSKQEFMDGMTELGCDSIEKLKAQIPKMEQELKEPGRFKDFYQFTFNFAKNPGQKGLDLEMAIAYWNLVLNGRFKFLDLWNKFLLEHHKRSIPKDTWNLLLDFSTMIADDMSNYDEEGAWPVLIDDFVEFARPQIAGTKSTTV
Experimental: (§6) Complexes formed between the biotinylated DI inhibitor and its targeted proteins were recovered by incubation with Streptavidin-agarose beads (Thermo Scientific Pierce, Waltham, Massachusetts). DCN1 and DCN2 proteins associated with beads were eluted by heating and detected by immunoblotting.
GAPDH was used as a loading control. […]

DCN3 = target: T2, DCN3 (Homo sapiens, UniProt Q8IWE4); test: Biochemical assays, binding of 47 to recombinant DCN3 (method not specified); settings: concentrations up to 10 µM
T2 construct: DCN2 (residues 62–259), DCN3 (residues 86–304), DCN4 (residues 102–292) and DCN5 (residues 47–237); His6-TEV (N, cleaved yes); made in house; host or cells: Rosetta2 cells (E. coli)
T2 sequence (Q8IWE4 86-304): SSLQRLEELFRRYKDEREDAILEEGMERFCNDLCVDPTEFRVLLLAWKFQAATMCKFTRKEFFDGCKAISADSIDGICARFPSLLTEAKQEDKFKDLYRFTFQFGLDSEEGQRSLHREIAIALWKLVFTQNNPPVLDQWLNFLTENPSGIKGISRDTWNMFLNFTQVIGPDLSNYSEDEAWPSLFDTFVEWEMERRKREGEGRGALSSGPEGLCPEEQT

DCN4 = target: T3, DCN4 (Homo sapiens, UniProt Q92564); test: Biochemical assays, binding of 47 to recombinant DCN4 (method not specified); settings: concentrations up to 10 µM
T3 construct: DCN2 (residues 62–259), DCN3 (residues 86–304), DCN4 (residues 102–292) and DCN5 (residues 47–237); His6-TEV (N, cleaved yes); made in house; host or cells: Rosetta2 cells (E. coli)
T3 sequence (Q92564 102-292): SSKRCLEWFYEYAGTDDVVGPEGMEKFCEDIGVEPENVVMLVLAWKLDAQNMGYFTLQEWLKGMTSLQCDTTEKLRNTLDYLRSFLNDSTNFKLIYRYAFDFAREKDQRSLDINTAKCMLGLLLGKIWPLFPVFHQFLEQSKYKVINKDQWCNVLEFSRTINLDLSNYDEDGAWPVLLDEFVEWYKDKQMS

DCN5 = target: T4, DCN5 (Homo sapiens, UniProt Q9BTE7); test: Biochemical assays, binding of 47 to recombinant DCN5 (method not specified); settings: concentrations up to 10 µM
T4 construct: DCN2 (residues 62–259), DCN3 (residues 86–304), DCN4 (residues 102–292) and DCN5 (residues 47–237); His6-TEV (N, cleaved yes); made in house; host or cells: Rosetta2 cells (E. coli)
T4 sequence (Q9BTE7 47-237): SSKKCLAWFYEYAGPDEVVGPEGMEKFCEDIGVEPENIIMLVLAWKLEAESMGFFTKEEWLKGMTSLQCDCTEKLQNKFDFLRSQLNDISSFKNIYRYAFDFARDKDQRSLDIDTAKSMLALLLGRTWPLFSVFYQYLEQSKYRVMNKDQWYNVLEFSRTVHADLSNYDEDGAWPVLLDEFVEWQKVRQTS

DCN2 = target: T5, DCN2 (Homo sapiens, UniProt Q6PH85); test: Competitive FP binding assay with probe 46, DCN2
T5 construct: DCN2 (residues 62–259), DCN3 (residues 86–304), DCN4 (residues 102–292) and DCN5 (residues 47–237); His6-TEV (N, cleaved yes); made in house; host or cells: Rosetta2 cells (E. coli)
T5 sequence (Q6PH85 62-259): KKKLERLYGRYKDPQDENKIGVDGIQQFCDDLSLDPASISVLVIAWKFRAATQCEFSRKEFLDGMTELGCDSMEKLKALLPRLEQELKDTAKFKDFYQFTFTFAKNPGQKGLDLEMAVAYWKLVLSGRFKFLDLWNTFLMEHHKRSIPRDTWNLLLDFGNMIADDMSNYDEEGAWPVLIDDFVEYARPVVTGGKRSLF
Experimental: The FP competitive binding experiments were performed to determine the binding affinities of all synthesized DCN1 inhibitors. […] Serial dilutions of DCN1 or DCN2 protein were mixed with the probe (46) to a final volume of 200 μl in the assay buffer (100 mM phosphate buffer, pH = 6.5, with 0.02% Tween-20 and 2% DMSO). The final probe concentration was 5 nM in both DCN1 and DCN2 assays. Plates were incubated at room temperature for 30 min with gentle shaking for equilibrium.
The IC50 and Ki values of compounds were determined in competitive binding experiments. Mixtures of compounds in DMSO (4 μl) and of pre-incubated protein/probe complex solution (196 μl) in the assay buffer were added into assay plates that were incubated at room temperature for 30 min with gentle shaking. Final concentrations of DCN1 protein and fluorescent probe (46) were 50 and 5 nM, respectively. […] FP values were measured as described above. IC50 values were determined by nonlinear regression fitting of the competition curves using the dose response inhibition equation (four parameters, variable slopes) included in the Prism/GraphPad software. K i values were calculated using the methods described earlier.

[3] = test system: cellular DCN1 and DCN2 proteins; test: Biotinylated protein pull-down assay, KYSE70 cell lysates; assay type: binding
Experimental: as §6

SMILES | effect on neddylation of cullin 3, time course (in words) (neddylation of cullin 3) | EC50 (KYSE70) | effect on neddylation of cullin 1, time course (in words) ([1]; THLE2 liver cells, up to 24 h, DI-591 10 µM, MLN4924 0.3 µM) | concentrations that effectively suppress neddylation of all cullins examined ([1]; all cullins examined, panel of six cell lines, 24 h) | protein levels of p21, Bim and CDT1 (in words) (p21, Bim, CDT1) | NRF2 protein level (in words) (NRF2) | EC50 (THLE2) | EC50 (KYSE140) | IC50 [2] | inhibition of UBC12 neddylation (E1 activity), in words (NEDD8 E1 (APP-BP1/Uba3)) | pull-down of DCN1 protein (in words) (DCN1) | binding to recombinant DCN3 (in words) (DCN3) | binding to recombinant DCN4 (in words) (DCN4) | binding to recombinant DCN5 (in words) (DCN5) | Ki (DCN2) | pull-down of cellular DCN1 and DCN2 proteins (in words) [3]
NS(=O)(=O)OC[C@@H]1C[C@@H](n2ccc3c(N[C@H]4CCc5ccccc54)ncnc32)C[C@@H]1O [MLN4924] | effective | 356 nM | effective | 10 to 300 nM | induces accumulation | induces accumulation; also recorded: much stronger upregulation | 53.4 nM | 65.4 nM | 50 to 350 nM | effectively inhibits |  |  |  |  |  | 
CCC(=O)NC(Cc1nc2ccc(C(C)C)cc2s1)C(=O)NC(CNC(=O)C1CCN(CCOCCOCCOCCNC(=O)CCCCC2SCC3NC(=O)NC32)CC1)C1CCCCC1 (stereo not shown) [compound 47] |  |  |  |  |  |  |  |  |  |  | pulls down DCN1 protein | no appreciable binding | no appreciable binding | no appreciable binding | 3.9 nM | efficiently pulls down
